Experimental data from patent publication US20210115044A1, “TRICYCLIC HETEROCYCLE COMPOUNDS USEFUL AS HIV INTEGRASE INHIBITORS” (Merck Sharp & Dohme Corp., priority 2018, published 2021).
Like-named read-outs stand apart in the source and are kept apart here.

System: HIV-1 (H9/IIIB strain)
Experiment: Multiple round HIV-1 infection assay in MT4-GFP cells (wild type cell assay, Viking)
Format: cell-based
Conditions: MT4-GFP cells infected with HIV-1 H9/IIIB, inhibition of reproductive ratio R0, ~48 h and ~72 h post-infection
Experimental: The antiviral activity of the Examples herein was assessed in an assay that measures the rate of replication of HIV in cell culture, and performed according to the following procedure. HIV-1 replication was monitored using MT4-gag-GFP clone D3 (hereafter designated MT4-GFP), which are MT-4 cells modified to harbor a GFP reporter gene, the expression of which is dependent on the HIV-1 expressed proteins tat and rev. Productive infection of an MT4-GFP cell with HIV-1 results in GFP expression approximately 24 h post-infection. MT4-GFP cells were maintained at 37° C./5% CO2/90% relative humidity in RPMI 1640 supplemented with 10% fetal bovine serum, 100 U/ml penicillin/streptomycin, and 400 μg/ml G418 to maintain the reporter gene. For infections, MT4-GFP cells were placed in the same medium lacking G418 and infected overnight with HIV-1 (H9/IIIB strain) virus at an approximate multiplicity of infection of 0.01 in the same incubation conditions. Cells were then washed and re-suspended in either RPMI 1640 at 2×10^5 cells/mL (0% NHS condition) or 100% normal human serum (NHS) at 2×10^5 cells/mL (100% NHS condition). Compound plates were prepared by dispensing compounds dissolved in DMSO into wells of 384 well poly-D-lysine-coated plates (0.2 μl/well) using an ECHO acoustic dispenser. Each compound was tested in a 10-point serial 3-fold dilution (typical final concentrations: 1050 nM-0.05 nM for 0% NHS condition or 42 μM-2.13 nM for 100% NHS condition). Controls included no inhibitor (DMSO only) and a combination of three antiviral agents (efavirenz, indinavir, an in-house integrase strand transfer inhibitor at final concentrations of 4 μM each). Cells were added ([…]) to compound plates and the infected cells were maintained at 37° C./5% CO2/90% relative humidity.
Infected cells were quantified at two time points, ˜48 h and ˜72 h post-infection, by counting the number of green cells in each well using an Acumen eX3 scanner. The increase in the number of green cells over ˜24 h period gives the reproductive ratio, R0, which is typically 5-15 and has been shown experimentally to be in logarithmic phase (data not shown). Inhibition of R0 is calculated for each well, and IC50s determined by non-linear 4-parameter curve fitting.

[1] = 0% NHS condition (RPMI 1640), read-out: WILD TYPE CELL ASSAY Viking IP (0% NHS)
[2] = 100% normal human serum condition, read-out: WILD TYPE CELL ASSAY Viking IP (100% NHS)
[3] = Human immunodeficiency virus 1, IIIB, 0% NHS condition (RPMI 1640), read-out: WILD TYPE CELL ASSAY Viking IP (0% NHS)
[4] = Human immunodeficiency virus 1, IIIB, 100% normal human serum condition, read-out: WILD TYPE CELL ASSAY Viking IP (100% NHS)

Compound	IC50 [1] [nM]	IC50 [2] [nM]	IC50 [3] [nM]	IC50 [4] [nM]
CC1C(O)c2c(C(=O)NCc3ccc(F)cc3F)c(=O)c(O)c3n2C1(C)CN(C)C3=O (single isomer, unassigned) [Compound 74]	1.6	38.4	–	–
CC1C(O)c2c(C(=O)NCc3ccc(F)cc3F)c(=O)c(O)c3n2C1(C)CN(C)C3=O (single isomer, unassigned) [Compound 75]	2.5	172	–	–
CC1C(O)c2c(C(=O)NCc3ccc(F)cc3F)c(=O)c(O)c3n2C1(C)CN(C)C3=O (single isomer, unassigned) [Compound 76]	2.5	237	–	–
CC1C(O)c2c(C(=O)NCc3ccc(F)cc3F)c(=O)c(O)c3n2C1(C)CN(C)C3=O (single isomer, unassigned) [Compound 77]	3.3	4470	–	–
CC1C(O)c2c(C(=O)NCc3ccc(F)cc3F)c(=O)c(O)c3n2C1(C)CN(C)C3=O (single isomer, unassigned) [Compound 78]	3.2	383	–	–
CC1C(O)c2c(C(=O)NCc3ccc(F)cc3F)c(=O)c(O)c3n2C1(C)CN(C)C3=O (single isomer, unassigned) [Compound 79]	4.5	942	–	–
CC1C(O)c2c(C(=O)NCc3ccc(F)cc3F)c(=O)c(O)c3n2C1(C)CN(C)C3=O (single isomer, unassigned) [Compound 80]	2.8	192	–	–
CN1CC2(C)CC(O)c3c(C(=O)NCc4ccc(F)cc4)c(=O)c(O)c(n32)C1=O (stereo not shown) [Compound 23]	–	–	1.9	121
CN1CC2(C)CC(O)c3c(C(=O)NCc4ccc(F)cc4)c(=O)c(O)c(n32)C1=O (stereo not shown) [Compound 24]	1.2	201	–	–
CN1CC2(C)CC(O)c3c(C(=O)NCc4c(F)cc(F)cc4F)c(=O)c(O)c(n32)C1=O (stereo not shown) [Compound 27]	2.1	29	–	–
CN1CC2(C)CC(O)c3c(C(=O)NCc4c(F)cc(F)cc4F)c(=O)c(O)c(n32)C1=O (stereo not shown) [Compound 28]	1	129	–	–
CN1CC2(C)CC(O)c3c(C(=O)NCc4c(F)ccc(Cl)c4F)c(=O)c(O)c(n32)C1=O (stereo not shown) [Compound 31]	–	268	1.7	–
CN1CC2(C)CC(O)c3c(C(=O)NCc4c(F)ccc(Cl)c4F)c(=O)c(O)c(n32)C1=O (stereo not shown) [Compound 32]	2.1	55.7	–	–
CN1CC2(C)CC(O)c3c(C(=O)NCc4cccc(Cl)c4F)c(=O)c(O)c(n32)C1=O (stereo not shown) [Compound 35]	–	–	2.1	116
CN1CC2(C)CC(O)c3c(C(=O)NCc4cccc(Cl)c4F)c(=O)c(O)c(n32)C1=O (stereo not shown) [Compound 36]	2.1	59.9	–	–
CCC12CC(O)c3c(C(=O)NCc4c(F)cc(F)cc4F)c(=O)c(O)c(n31)C(=O)N(C)C2 (stereo not shown) [Compound 47]	–	1460	2.3	–
CCC12CC(O)c3c(C(=O)NCc4c(F)cc(F)cc4F)c(=O)c(O)c(n31)C(=O)N(C)C2 (stereo not shown) [Compound 48]	2.1	261	–	–
CCC12CC(O)c3c(C(=O)NCc4c(F)ccc(F)c4F)c(=O)c(O)c(n31)C(=O)N(C)C2 (stereo not shown) [Compound 51]	–	32.2	1.7	–
CCC12CC(O)c3c(C(=O)NCc4c(F)ccc(F)c4F)c(=O)c(O)c(n31)C(=O)N(C)C2 (stereo not shown) [Compound 52]	2.7	150	–	–
CCC12CC(O)c3c(C(=O)NCc4c(F)ccc(Cl)c4F)c(=O)c(O)c(n31)C(=O)N(C)C2 (stereo not shown) [Compound 55]	–	93.6	2.2	–
CCC12CC(O)c3c(C(=O)NCc4c(F)ccc(Cl)c4F)c(=O)c(O)c(n31)C(=O)N(C)C2 (stereo not shown) [Compound 56]	3.4	891	–	–
CCN1CC2(COC)CC(O)c3c(C(=O)NCc4c(F)cc(F)cc4F)c(=O)c(O)c(n32)C1=O (stereo not shown) [Compound 63]	–	9300	2.9	–
CCN1CC2(COC)CC(O)c3c(C(=O)NCc4c(F)cc(F)cc4F)c(=O)c(O)c(n32)C1=O (stereo not shown) [Compound 64]	2.9	2740	–	–
